Common to all, as to type: cell-based
In experiment [1] the target is Sodium-dependent dopamine transporter (Homo sapiens) (UniProt Q01959). Kind of experiment: Inhibition of [3H]dopamine uptake in HEK293 cells expressing recombinant Dopamine transporter.
The target is the same in experiment [2]. Kind of experiment: Inhibition of radioligand [125I]RTI-55 binding to human Dopamine transporter in clonal cells.
Experiment [3] deals with Sodium-dependent serotonin transporter (Homo sapiens) (UniProt P31645). The experiment is described as follows: Inhibition of [125I]RTI-55 binding to human SERT in clonal cells.
Chain of Sodium-dependent serotonin transporter (Homo sapiens) (P31645 whole entry, looked up): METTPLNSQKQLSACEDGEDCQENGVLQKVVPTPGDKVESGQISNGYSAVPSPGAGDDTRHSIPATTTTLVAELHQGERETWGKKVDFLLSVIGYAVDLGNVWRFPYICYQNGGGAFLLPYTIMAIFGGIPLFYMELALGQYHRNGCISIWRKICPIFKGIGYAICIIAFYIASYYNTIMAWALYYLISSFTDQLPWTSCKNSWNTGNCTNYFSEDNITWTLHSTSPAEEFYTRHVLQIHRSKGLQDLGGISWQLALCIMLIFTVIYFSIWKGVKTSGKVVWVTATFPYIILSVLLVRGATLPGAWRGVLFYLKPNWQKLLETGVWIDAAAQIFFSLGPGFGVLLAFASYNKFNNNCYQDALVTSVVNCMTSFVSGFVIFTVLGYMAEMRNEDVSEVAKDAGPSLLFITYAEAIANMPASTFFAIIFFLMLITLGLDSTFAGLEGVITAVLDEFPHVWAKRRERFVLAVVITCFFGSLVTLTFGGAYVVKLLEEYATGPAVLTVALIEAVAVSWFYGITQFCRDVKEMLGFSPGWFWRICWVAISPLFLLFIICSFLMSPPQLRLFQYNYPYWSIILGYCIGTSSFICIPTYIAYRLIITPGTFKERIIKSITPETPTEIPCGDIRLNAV

Several values for one entry are separate records, joined by “and”; a condition that tells them apart may be missing. Identical values can stand only once.

Chain of Sodium-dependent dopamine transporter (Homo sapiens) (Q01959 whole entry): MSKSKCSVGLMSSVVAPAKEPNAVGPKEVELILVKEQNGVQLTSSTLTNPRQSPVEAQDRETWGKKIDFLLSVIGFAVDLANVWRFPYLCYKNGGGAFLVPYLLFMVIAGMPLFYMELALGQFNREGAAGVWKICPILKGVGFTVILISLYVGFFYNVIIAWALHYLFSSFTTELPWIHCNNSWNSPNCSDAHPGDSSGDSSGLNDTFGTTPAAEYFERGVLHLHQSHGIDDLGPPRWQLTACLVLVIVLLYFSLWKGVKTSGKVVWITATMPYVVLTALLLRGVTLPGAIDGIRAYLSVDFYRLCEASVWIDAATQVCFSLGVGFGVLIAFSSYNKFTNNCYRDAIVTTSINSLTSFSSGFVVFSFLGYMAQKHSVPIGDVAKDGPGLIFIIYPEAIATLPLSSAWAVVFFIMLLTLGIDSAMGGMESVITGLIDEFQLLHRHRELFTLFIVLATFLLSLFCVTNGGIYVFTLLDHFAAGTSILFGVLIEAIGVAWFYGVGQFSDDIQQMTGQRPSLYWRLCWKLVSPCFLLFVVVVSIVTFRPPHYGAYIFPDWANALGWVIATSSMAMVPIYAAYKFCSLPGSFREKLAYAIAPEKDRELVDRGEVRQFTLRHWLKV

One may read the pKD as the KD on a negative log10 scale, so that one unit is a factor of ten. As to `Cc1ccc(C(OCCN2CCN(C/C=C/c3ccccc3)CC2)c2ccccc2)cc1` (stereo not drawn), the Log 1/C in experiment [1] came to 6.78. Further, the pKD in experiment [2] turned out to be 6.95; in experiment [3], 5.95.

Take `Fc1ccc(CCCN2CCN(CCOC(c3ccccc3)c3ccccc3)CC2)cc1`: the Log 1/C in experiment [1] came out at 6.41. The negative logarithm of the KD (pKD) in experiment [2] amounted to 7.4; in experiment [3], 5.74.

In the case of `Fc1ccc(C(OCCN2CCN(CCCc3ccc(Cl)cc3)CC2)c2ccc(F)cc2)cc1`, in experiment [1], the Log 1/C is 7.3. Also, the pKD is 8.09 in experiment [2] and 6.81 in experiment [3].

In experiment [3], `COc1ccc(C(OCCN2CCN(C/C=C/c3ccccc3)CC2)c2ccccc2)cc1` (stereo not drawn) came in with a pKD of 6.16.

Turning to `Fc1ccc(CCCN2CCN(CCOC(c3ccccc3)c3ccc(F)cc3)CC2)cc1` (stereo not drawn), the Log 1/C in experiment [1] turned out to be 7.49. Moreover, the pKD in experiment [2] is 7.51; in experiment [3] it was 6.33.

`COc1ccc(OC)c(/C=C/CN2CCN(CCOC(c3ccc(F)cc3)c3ccc(F)cc3)CC2)c1`: the Log 1/C in experiment [1] amounted to 6.43. The negative logarithm of the KD (pKD) was determined as 8.42 in experiment [2] and 6.74 in experiment [3].

Consider `Fc1ccc(C(OCCN2CCN(C/C=C/c3ccccc3)CC2)c2ccc(F)cc2)cc1` (stereo in doubt; 24), for which, in experiment [1], the Log 1/C is 8.38. Also, the results for the pKD in experiment [2] and in experiment [3] were 7.76 and 7.79, respectively.

`O=C(/C=C/c1ccccc1Cl)N1CCN(CCOC(c2ccc(F)cc2)c2ccc(F)cc2)CC1`: the Log 1/C in experiment [1] was 5.24. In addition, the negative logarithm of the KD (pKD) was found to be 6.14 in experiment [2] and 6.77 in experiment [3].

As for `c1ccc(CCCN2CCN(CCCN(Cc3ccccc3)c3ccccc3)CC2)cc1`, in experiment [1], the Log 1/C was 6.07 and 5.83.

As for `O=C(CCCCN1CCN(CCCc2ccccc2)CC1)N(Cc1ccccc1)c1ccccc1`, the Log 1/C in experiment [1] worked out at 6.92. The pKD in experiment [2] amounted to 7.24; in experiment [3] it was 6.69.

As to `c1ccc(CCCN2CCN(CCCCCN(Cc3ccccc3)c3ccccc3)CC2)cc1`, the Log 1/C in experiment [1] came out at 5.83. Also, the values for the pKD in experiment [2] and in experiment [3] were 7.5 and 6.63, respectively.

For `Clc1ccc(C(OCCN2CCN(C/C=C/c3ccccc3)CC2)c2ccc(Cl)cc2)cc1`, the Log 1/C in experiment [1] turned out to be 6.62. Moreover, the figures for the pKD in experiment [2] and in experiment [3] were 7.42 and 6.48, respectively.

Consider `COc1ccc(/C=C/CN2CCN(CCOC(c3ccc(F)cc3)c3ccc(F)cc3)CC2)cc1`, for which the Log 1/C in experiment [1] was determined as 6.47. Further, the pKD in experiment [2] came out at 7.19; in experiment [3], 6.43.

Regarding `Fc1ccc(C(OCCN2CCN(Cc3ccccc3)CC2)c2ccc(F)cc2)cc1`, the Log 1/C in experiment [1] came to 6.12. The negative-log KD (pKD) in experiment [2] was 7.01; in experiment [3] it was 6.74.

Take `Fc1ccc(C(OCCN2CCN(C/C=C/c3ccccc3)CC2)c2ccc(Cl)cc2Cl)cc1` (stereo not drawn): in experiment [1], the Log 1/C is 5.86. Also, the pKD worked out at 7.18 in experiment [2] and 6.28 in experiment [3].

Turning to `Brc1ccc(CN(CCN2CCN(CCCc3ccccc3)CC2)c2ccc(Br)cc2)cc1`, the pKD in experiment [2] was determined as 6.01; in experiment [3], 5.79.

Regarding `COc1ccc(OC)c(/C=C/C(=O)N2CCN(CCOC(c3ccc(F)cc3)c3ccc(F)cc3)CC2)c1`, the pKD in experiment [2] was determined as 6.25; in experiment [3], 6.69.

With `c1ccc(CCCN2CCN(CCN(Cc3ccccc3)c3ccccc3)CC2)cc1`, the Log 1/C in experiment [1] amounted to 5.96. In addition, the negative-log KD (pKD) in experiment [2] was 6.66; in experiment [3], 5.92.

In the case of `C(=C\c1ccccc1)/CN1CCN(CCN(Cc2ccccc2)c2ccccc2)CC1`, the Log 1/C in experiment [1] stood at 6.74. Also, the pKD in experiment [2] is 6.35; in experiment [3] it was 6.22.

On to `COc1ccc(CN(CCCN2CCN(CCCc3ccccc3)CC2)c2ccccn2)cc1`, for which the Log 1/C in experiment [1] is 7.08. The negative logarithm of the KD (pKD) was 7.8 in experiment [2] and 7.23 in experiment [3].

Take `O=C(CCCN1CCN(CCCc2ccccc2)CC1)N(Cc1ccccc1)c1ccccc1`: in experiment [1], the Log 1/C turned out to be 7.12. Further, the figures for the pKD in experiment [2] and in experiment [3] were 7.56 and 6.28, respectively.

Consider `c1ccc(CCCN2CCN(CCCCN(Cc3ccccc3)c3ccccc3)CC2)cc1`, for which the Log 1/C in experiment [1] was determined as 5.76. Besides, the results for the pKD in experiment [2] and in experiment [3] were 7.86 and 6.88, respectively.

On to `Fc1ccc(C(OCCN2CCN(C/C=C/c3ccccc3)CC2)c2ccc(F)cc2)cc1` (stereo in doubt; 15), for which the Log 1/C in experiment [1] was found to be 7.08. Further, the pKD is 8.11 in experiment [2] and 6.44 in experiment [3].

`Cc1ccc(/C=C/CN2CCN(CCOC(c3ccc(F)cc3)c3ccc(F)cc3)CC2)cc1`: in experiment [1], the Log 1/C is 6.43. Also, the figures for the pKD in experiment [2] and in experiment [3] were 7.32 and 6.18, respectively.

In the case of `Fc1ccc(C(OCCN2CCN(C/C=C/c3ccccc3)CC2)c2ccc(F)cc2)cc1` (stereo in doubt; 26), in experiment [1], the Log 1/C was determined as 6.97. Further, the values for the pKD in experiment [2] and in experiment [3] were 6.39 and 6.02, respectively.

As for `Fc1ccc(/C=C/CN2CCN(CCOC(c3ccc(F)cc3)c3ccc(F)cc3)CC2)cc1`, the Log 1/C in experiment [1] came to 6.96. Moreover, the pKD in experiment [2] came to 8.41; in experiment [3], 6.64.

On to `COc1ccc(N(CCN2CCN(CCCc3ccccc3)CC2)Cc2ccccc2)cc1`, for which the Log 1/C in experiment [1] is 6.67. Moreover, the negative logarithm of the KD (pKD) in experiment [2] turned out to be 6.04; in experiment [3], 6.59.

In the case of `Fc1ccc(C(OCCN2CCN(C/C=C/c3ccc(Cl)cc3)CC2)c2ccc(F)cc2)cc1`, in experiment [1], the Log 1/C is 6.66. The negative logarithm of the KD (pKD) in experiment [2] worked out at 7.65; in experiment [3], 6.09.

As for `Fc1ccc(/C=C/CN2CCN(CCOC(c3ccccc3)c3ccccc3)CC2)cc1`, in experiment [1], the Log 1/C came to 7.26. Also, the pKD in experiment [2] was found to be 7.8; in experiment [3] it was 5.88.

For `CN(CCc1ccccc1)CCN1CCN(CCCc2ccccc2)CC1`, the Log 1/C in experiment [1] worked out at 6.85. For the same compound, the pKD in experiment [2] was determined as 6.26; in experiment [3] it was 5.58.

As to `Fc1ccc(CN(CCCN2CCN(CCCc3ccccc3)CC2)c2ccccn2)cc1`, the Log 1/C in experiment [1] stood at 6.91. Besides, the pKD in experiment [2] was found to be 7.95; in experiment [3] it was 6.55.

Take `COc1ccc(CN(CCN2CCN(CCCc3ccccc3)CC2)c2ccccn2)cc1`: the Log 1/C in experiment [1] amounted to 6.57. Further, the figures for the pKD in experiment [2] and in experiment [3] were 6.66 and 6.79, respectively.

Consider `O=C(CN1CCN(CCCc2ccccc2)CC1)N(Cc1ccccc1)c1ccccc1`, for which the Log 1/C in experiment [1] was 6.28. The figures for the negative-log KD (pKD) in experiment [2] and in experiment [3] were 5.97 and 5.54, respectively.

Turning to `Fc1ccc(C(OCCN2CCN(C/C=C/c3ccccc3)CC2)c2ccccc2)cc1` (stereo not drawn), the Log 1/C in experiment [1] is 7.1. For the same compound, the negative-log KD (pKD) in experiment [2] worked out at 7.48; in experiment [3], 6.67.

`Fc1ccc(CN(CCCN2CCN(CCCc3ccccc3)CC2)c2ccc(F)cc2)cc1`: the Log 1/C in experiment [1] is 6.82. Besides, the pKD came to 7.86 in experiment [2] and 6.48 in experiment [3].

Regarding `Cc1ccc(CN(CCN2CCN(CCCc3ccccc3)CC2)c2ccccc2)cc1`, the Log 1/C in experiment [1] came out at 5.49. The pKD in experiment [2] turned out to be 6.37; in experiment [3], 6.09.

As for `COc1ccc(N(CCN2CCN(C/C=C/c3ccccc3)CC2)Cc2ccccc2)cc1`, the pKD in experiment [3] worked out at 6.55.

For the compound `COc1cccc(C(OCCN2CCN(C/C=C/c3ccccc3)CC2)c2cccc(Br)c2)c1` (stereo not drawn), the Log 1/C in experiment [1] amounted to 6.05. The pKD in experiment [2] was found to be 6.88; in experiment [3], 6.13.

As for `Fc1ccc(C(OCCN2CCN(CCCc3ccccc3)CC2)c2ccccc2)cc1` (stereo not drawn), the Log 1/C in experiment [1] is 7.8. Further, the pKD in experiment [2] turned out to be 7.69; in experiment [3] it was 6.21.

Regarding `Fc1ccc(/C=C/CN2CCN(CCOC(c3ccccc3)c3ccc(F)cc3)CC2)cc1` (stereo not drawn), in experiment [1], the Log 1/C turned out to be 7.22. In addition, the pKD amounted to 7.64 in experiment [2] and 6.7 in experiment [3].

As to `Fc1ccc(CCCN2CCN(CCOC(c3ccc(F)cc3)c3ccc(F)cc3)CC2)cc1`, the Log 1/C in experiment [1] was determined as 6.42. Further, the pKD in experiment [2] came out at 8.25; in experiment [3] it was 6.44.

As to `COc1ccc(CN(CCN2CCN(C/C=C/c3ccccc3)CC2)c2ccccn2)cc1`, the negative logarithm of the KD (pKD) in experiment [2] turned out to be 5.66; in experiment [3], 6.64.

On to `Cc1ccc(/C=C/C(=O)N2CCN(CCOC(c3ccc(F)cc3)c3ccc(F)cc3)CC2)cc1`, for which the Log 1/C in experiment [1] was found to be 5.21. Also, the pKD in experiment [2] turned out to be 6.1; in experiment [3] it was 6.71.

As for `C(=C\c1ccccc1)/CN1CCN(CCN(Cc2ccccc2)c2ccccn2)CC1`, the Log 1/C in experiment [1] came out at 6.1. The figures for the pKD in experiment [2] and in experiment [3] were 6 and 6.17, respectively.

Take `O=C(CCCN1CCN(CCCc2ccccc2)CC1)N(Cc1ccccc1)c1ccccn1`: in experiment [1], the Log 1/C was 6.61. Besides, the pKD turned out to be 6.25 in experiment [2] and 5.88 in experiment [3].

On to `Fc1ccc(CN(CCN2CCN(CCCc3ccccc3)CC2)c2ccccn2)cc1`, for which the Log 1/C in experiment [1] worked out at 6.24. The negative-log KD (pKD) in experiment [2] was determined as 7.19; in experiment [3] it was 6.64.

Take `COc1ccc(/C=C/C(=O)N2CCN(CCOC(c3ccc(F)cc3)c3ccc(F)cc3)CC2)cc1`: the Log 1/C in experiment [1] stood at 5.87. In addition, the results for the pKD in experiment [2] and in experiment [3] were 6.31 and 6.85, respectively.

On to `O=C(/C=C/c1c(Cl)cccc1Cl)N1CCN(CCOC(c2ccc(F)cc2)c2ccc(F)cc2)CC1`, for which the negative-log KD (pKD) was determined as 5.82 in experiment [2] and 6.68 in experiment [3].

On to `c1ccc(CCCN2CCN(CCN(Cc3ccccc3)c3ccccn3)CC2)cc1`, for which the Log 1/C in experiment [1] amounted to 6.91. In addition, the negative logarithm of the KD (pKD) in experiment [2] turned out to be 7.04; in experiment [3] it was 6.28.

On to `Fc1ccc(C(OCCN2CCN(C/C=C/Cc3ccccc3)CC2)c2ccc(F)cc2)cc1`, for which, in experiment [1], the Log 1/C turned out to be 6.86. The negative-log KD (pKD) in experiment [2] was determined as 8.29; in experiment [3], 7.14.

`O=C(/C=C/c1ccc(Cl)cc1)N1CCN(CCOC(c2ccc(F)cc2)c2ccc(F)cc2)CC1`: the Log 1/C in experiment [1] was determined as 5.44. Moreover, the results for the negative logarithm of the KD (pKD) in experiment [2] and in experiment [3] were 6.37 and 7.14, respectively.

On to `Fc1ccc(C(OCCN2CCN(C/C=C/c3ccccc3)CC2)c2ccc(Cl)cc2)cc1` (stereo not drawn), for which, in experiment [1], the Log 1/C turned out to be 6.7. For the same compound, the pKD in experiment [2] was found to be 8.41; in experiment [3], 6.72.

`Fc1ccc(CN(CCN2CCN(CCCc3ccccc3)CC2)c2ccc(F)cc2)cc1`: the negative-log KD (pKD) in experiment [2] came out at 7.28; in experiment [3], 6.57.

(Values after ChEMBL document CHEMBL1135912, “GBR compounds and mepyramines as cocaine abuse therapeutics: chemometric studies on selectivity using grid independent descriptors (GRIND)” (J Med Chem, 2002).)
